{
  "source": "patent US9302023B2",
  "about": "“Aldehyde gas deodorant and method for producing same” (TOAGOSEI CO., LTD., priority 2012, dated 2016)",
  "origin": "cited, not measured here",
  "data": [
    {"details": "stated as known; unsupported substance", "values": [
      {"smiles": "NNC(=O)CCCCC(=O)NN", "note": "[adipic dihydrazide]", "Mutagenicity of the substance itself": "negative"},
      {"smiles": "NNC(=O)NN", "note": "[carbohydrazide]", "Mutagenicity of the substance itself": "negative"},
      {"smiles": "NN", "note": "[hydrated hydrazine]", "Mutagenicity of the substance itself": "strongly positive"},
      {"smiles": "NN", "note": "[hydrazine]", "Mutagenicity of the substance itself": "positive"},
      {"smiles": "NNC(=O)C(=O)NN", "note": "[oxalic dihydrazide]", "Mutagenicity of the substance itself": "negative"},
      {"smiles": "NNC(=O)CCC(=O)NN", "note": "[succinic dihydrazide]", "Mutagenicity of the substance itself": "weakly positive"}
    ]},
    {"details": "stated as known; unsupported substance; listed as Hydrazine", "values": [
      {"smiles": "NN", "note": "[hydrazine]", "Mutagenicity of the substance itself": "highly positive"}
    ]}
  ]
}
